This note sets out measurements from ChEMBL document CHEMBL1128651, “Preparation and in vitro activity of aryl ether derivatives of the FK-506 related immunosuppressive macrolides ascomycin and L-683,742” (Bioorg Med Chem Lett, 1995).

The IC50 is the concentration needed to halve the response being measured. Higher therefore signals lower potency.

For the test, the system named is Murine T-cell line. The test is described as follows: Inhibition of proliferation of PMA and Ionomycin stimulated murine T cells. Type of test: functional, cell-based. As to conditions: Mus musculus.
Regarding `CC[C@@H]1/C=C(\C)C[C@H](C)C[C@H](OC)[C@H]2O[C@@](O)(C(=O)C(=O)N3CCCC[C@H]3C(=O)O[C@H](/C(C)=C/[C@@H]3CC[C@@H](Oc4cc(C(F)(F)F)cc(C(F)(F)F)c4)[C@H](OC)C3)[C@H](C)[C@@H](O)CC1=O)[C@H](C)C[C@@H]2OC`, it took 607 nM to reach half-maximal inhibition (IC50).

In turn, `CC[C@@H]1/C=C(\C)C[C@H](C)C[C@H](OC)[C@H]2O[C@@](O)(C(=O)C(=O)N3CCCC[C@H]3C(=O)O[C@H](/C(C)=C/[C@@H]3CC[C@@H](Oc4ccccc4)[C@H](OC)C3)[C@H](C)[C@@H](O)CC1=O)[C@H](C)C[C@@H]2OC` showed an IC50 of 5.4 nM.

For `CC[C@@H]1/C=C(\C)C[C@H](C)C[C@H](OC)[C@H]2O[C@@](O)(C(=O)C(=O)N3CCCC[C@H]3C(=O)O[C@H](/C(C)=C/[C@@H]3CC[C@@H](Oc4ccc(C)cc4)[C@H](O)C3)[C@H](C)[C@@H](O)CC1=O)[C@H](C)C[C@@H]2OC`, 6 nM corresponded to half-maximal inhibition (IC50). The IC50 values of the last two molecules are within 1.5-fold of each other.

`CC[C@@H]1/C=C(\C)C[C@H](C)C[C@H](OC)[C@H]2O[C@@](O)(C(=O)C(=O)N3CCCC[C@H]3C(=O)O[C@H](/C(C)=C/[C@@H]3CC[C@@H](O)[C@H](Oc4ccc(C)cc4)C3)[C@H](C)[C@@H](O)CC1=O)[C@H](C)C[C@@H]2OC`: the IC50 was 2.6 nM.

Regarding `CC[C@@H]1/C=C(\C)C[C@H](C)C[C@H](OC)[C@H]2O[C@@](O)(C(=O)C(=O)N3CCCC[C@H]3C(=O)O[C@H](/C(C)=C/[C@@H]3CC[C@@H](Oc4ccc(F)cc4)[C@H](OC)C3)[C@H](C)[C@@H](O)CC1=O)[C@H](C)C[C@@H]2OC`, 3.4 nM corresponded to half-maximal inhibition (IC50).

As to `CC[C@@H]1/C=C(\C)C[C@H](C)C[C@H](OC)[C@H]2O[C@@](O)(C(=O)C(=O)N3CCCC[C@H]3C(=O)O[C@H](/C(C)=C/[C@@H]3CC[C@@H](Oc4ccccc4)[C@H](O)C3)[C@H](C)[C@@H](O)CC1=O)[C@H](C)C[C@@H]2OC`, 5.2 nM corresponded to half-maximal inhibition (IC50).

In turn, `CC[C@@H]1/C=C(\C)C[C@H](C)C[C@H](OC)[C@H]2O[C@@](O)(C(=O)C(=O)N3CCCC[C@H]3C(=O)O[C@H](/C(C)=C/[C@@H]3CC[C@@H](O)[C@H](Oc4ccc(O)cc4)C3)[C@H](C)[C@@H](O)CC1=O)[C@H](C)C[C@@H]2OC` displayed an IC50 of 0.9 nM.

As for `CC[C@@H]1/C=C(\C)C[C@H](C)C[C@H](OC)[C@H]2O[C@@](O)(C(=O)C(=O)N3CCCC[C@H]3C(=O)O[C@H](/C(C)=C/[C@@H]3CC[C@@H](Oc4ccc(O)cc4)[C@H](O)C3)[C@H](C)[C@@H](O)CC1=O)[C@H](C)C[C@@H]2OC`, 1.6 nM corresponded to half-maximal inhibition (IC50).

Molecule `CC[C@@H]1/C=C(\C)C[C@H](C)C[C@H](OC)[C@H]2O[C@@](O)(C(=O)C(=O)N3CCCC[C@H]3C(=O)O[C@H](/C(C)=C/[C@@H]3CC[C@@H](Oc4cccc(C)c4)[C@H](OC)C3)[C@H](C)[C@@H](O)CC1=O)[C@H](C)C[C@@H]2OC` gave an IC50 of 5.4 nM.

Consider `CC[C@@H]1/C=C(\C)C[C@H](C)C[C@H](OC)[C@H]2O[C@@](O)(C(=O)C(=O)N3CCCC[C@H]3C(=O)O[C@H](/C(C)=C/[C@@H]3CC[C@@H](Oc4ccc(O)cc4)[C@H](OC)C3)[C@H](C)[C@@H](O)CC1=O)[C@H](C)C[C@@H]2OC`, for which the IC50 stood at 0.8 nM. Compared with the last molecule, the IC50 is about 6.8-fold lower.

Molecule `CC[C@@H]1/C=C(\C)C[C@H](C)C[C@H](OC)[C@H]2O[C@@](O)(C(=O)C(=O)N3CCCC[C@H]3C(=O)O[C@H](/C(C)=C/[C@@H]3CC[C@@H](O)[C@H](Oc4ccccc4)C3)[C@H](C)[C@@H](O)CC1=O)[C@H](C)C[C@@H]2OC` showed an IC50 of 3.2 nM.

Take `CC[C@@H]1/C=C(\C)C[C@H](C)C[C@H](OC)[C@H]2O[C@@](O)(C(=O)C(=O)N3CCCC[C@H]3C(=O)O[C@H](/C(C)=C/[C@@H]3CC[C@@H](O)[C@H](O)C3)[C@H](C)[C@@H](O)CC1=O)[C@H](C)C[C@@H]2OC`: the IC50 is 1.63 nM. This IC50 lies about 2-fold lower than the previous one.

As to `CC[C@@H]1/C=C(\C)C[C@H](C)C[C@H](OC)[C@H]2O[C@@](O)(C(=O)C(=O)N3CCCC[C@H]3C(=O)O[C@H](/C(C)=C/[C@@H]3CC[C@@H](O)[C@H](Oc4ccc(OC)cc4)C3)[C@H](C)[C@@H](O)CC1=O)[C@H](C)C[C@@H]2OC`, the IC50 was 0.9 nM.

Molecule `CC[C@@H]1/C=C(\C)C[C@H](C)C[C@H](OC)[C@H]2O[C@@](O)(C(=O)C(=O)N3CCCC[C@H]3C(=O)O[C@H](/C(C)=C/[C@@H]3CC[C@@H](Oc4ccc(C(F)(F)F)cc4)[C@H](OC)C3)[C@H](C)[C@@H](O)CC1=O)[C@H](C)C[C@@H]2OC` registered an IC50 of 35.8 nM.

With `CC[C@@H]1/C=C(\C)C[C@H](C)C[C@H](OC)[C@H]2O[C@@](O)(C(=O)C(=O)N3CCCC[C@H]3C(=O)O[C@H](/C(C)=C/[C@@H]3CC[C@@H](Oc4cccc(OC)c4)[C@H](OC)C3)[C@H](C)[C@@H](O)CC1=O)[C@H](C)C[C@@H]2OC`, it took 3.4 nM to reach half-maximal inhibition (IC50).

Consider `CC[C@@H]1/C=C(\C)C[C@H](C)C[C@H](OC)[C@H]2O[C@@](O)(C(=O)C(=O)N3CCCC[C@H]3C(=O)O[C@H](/C(C)=C/[C@@H]3CC[C@@H](Oc4ccc(SC)cc4)[C@H](OC)C3)[C@H](C)[C@@H](O)CC1=O)[C@H](C)C[C@@H]2OC`, for which inhibition was half-maximal at 2.6 nM (IC50).

For `CC[C@@H]1/C=C(\C)C[C@H](C)C[C@H](OC)[C@H]2O[C@@](O)(C(=O)C(=O)N3CCCC[C@H]3C(=O)O[C@H](/C(C)=C/[C@@H]3CC[C@@H](Oc4cccc(O)c4)[C@H](OC)C3)[C@H](C)[C@@H](O)CC1=O)[C@H](C)C[C@@H]2OC`, the IC50 worked out at 1.7 nM. Against the preceding molecule, the IC50 is about 1.5-fold lower.

As for `CC[C@@H]1/C=C(\C)C[C@H](C)C[C@H](OC)[C@H]2O[C@@](O)(C(=O)C(=O)N3CCCC[C@H]3C(=O)O[C@H](/C(C)=C/[C@@H]3CC[C@@H](Oc4ccc(N(C)C)cc4)[C@H](OC)C3)[C@H](C)[C@@H](O)CC1=O)[C@H](C)C[C@@H]2OC`, the IC50 was 1.1 nM.

In turn, `CC[C@@H]1/C=C(\C)C[C@H](C)C[C@H](OC)[C@H]2O[C@@](O)(C(=O)C(=O)N3CCCC[C@H]3C(=O)O[C@H](/C(C)=C/[C@@H]3CC[C@@H](Oc4ccc(OC)cc4)[C@H](OC)C3)[C@H](C)[C@@H](O)CC1=O)[C@H](C)C[C@@H]2OC` came in with an IC50 of 1.4 nM.

`CC[C@@H]1/C=C(\C)C[C@H](C)C[C@H](OC)[C@H]2O[C@@](O)(C(=O)C(=O)N3CCCC[C@H]3C(=O)O[C@H](/C(C)=C/[C@@H]3CC[C@@H](Oc4ccc(C)cc4)[C@H](OC)C3)[C@H](C)[C@@H](O)CC1=O)[C@H](C)C[C@@H]2OC` returned an IC50 of 2.7 nM.

With `CC[C@@H]1/C=C(\C)C[C@H](C)C[C@H](OC)[C@H]2O[C@@](O)(C(=O)C(=O)N3CCCC[C@H]3C(=O)O[C@H](/C(C)=C/[C@@H]3CC[C@@H](Oc4ccc(OC)cc4)[C@H](O)C3)[C@H](C)[C@@H](O)CC1=O)[C@H](C)C[C@@H]2OC`, the IC50 worked out at 1.2 nM.

For the molecule `CC[C@@H]1/C=C(\C)C[C@H](C)C[C@H](OC)[C@H]2O[C@@](O)(C(=O)C(=O)N3CCCC[C@H]3C(=O)O[C@H](/C(C)=C/[C@@H]3CC[C@@H](O)[C@H](OC)C3)[C@H](C)[C@@H](O)CC1=O)[C@H](C)C[C@@H]2OC` [ASCOMYCIN], the midpoint of inhibition, the IC50, lay at 0.69 nM.
